Test results as given in patent US11364231B2, “Methods of treating radiation induced gastrointestinal syndrome (RIGS) and related disease states using YEL002/BCN057” (priority 2017, dated 2022).
“Also recorded” adds a separate entry of the source.

Key:
[1] = system: intestinal crypt organoids from Lgr5/EGFP-IRES-Cre-ERT2 knock in mice; test: Ex vivo irradiated mouse intestinal crypt organoids; assay type: cell-based
From the text: To analyze the effect of BCN057 on ISC population, an ex vivo primary intestinal culture system exposed to graded doses of irradiation was developed. Intestinal crypt isolated from Lgr5/EGFP-IRES-Cre-ERT2 knock in mice to allow the visualization of the ISCs. At a dose level of 8 Gy most of the Lgr5+ve ISCs had disappeared within 48 hrs resulting significant loss of budding crypt with changes in existing crypt morphology indicating inhibition of ISC growth and differentiation in response to radiation exposure. […] A representative microscopic image of effect of BCN057 on budding crypt having Lgr5+ve ISCs (GFP+ve cells indicated with arrow) is shown in FIG. 10.
Small intestine from Lgr5-GFP mice, or their littermates control mice was used for crypt isolation and development of ex vivo organoid culture. The tissue was scraped for removing villi and chopped into˜5 mm pieces. Then tissue was washed with cold PBS, and incubated in dissociation buffer for 20 mins in rotor at room temperature. The tissue fragments were suspended vigorously with a 10-ml pipette in cold 0.1% BSA in PBS, yielding supernatants enriched in epithelial cells. […] The number of organoids per well was counted on microscopic images. […] Total number of crypt structures and number of budding crypts were counted and expressed as a ratio of budding crypts/total crypt structure.

[2] = system: intestinal epithelial integrity; test: FITC-dextran permeability assay; assay type: in vivo, mice
Method: Since dextran is unable to cross the GI epithelia unless it is compromised, dextran in the blood is a good indicator of epithelial damage. Blood FITC-dextran levels were measured at 4 h after gavage.
At day 5 post mice exposed to ABI and/or treated with BCN057 were gavaged with 0.6 mg g-1 body weight of a FITC-dextran solution ([…] size, Sigma). In all, four hrs. after gavage mice were killed and serum was obtained with cardiac puncture. Samples were measured in a 96-well plate using a Flexstation ii 384 multiwell fluorometer (Molecular Devices). A standard curve was constructed using mouse serum having increasing amounts of FITC-dextran to determine the serum levels of FITC-dextran in different treatment groups.

[3] = system: irradiated intestinal epithelium (jejunum); test: Jejunum histology and crypt proliferation after AIR; assay type: in vivo
[4] = system: human malignant colonic organoids; test: Human colon tumor derived organoids with or without irradiation; assay type: cell-based
From the text: FIG. 16. […] Organoids derived from surgical specimen of colon tumor were exposed to irradiation (8Gy) and then treated with BCN057. Note loss of budding crypt like structure in Irradiated organoids treated with BCN057.
FIG. 17. […] Budding crypt to total crypt ratio reduced in a dose dependent manner following irradiation (2-8 Gy).
BCN057 was first examined in the National Cancer Institute (NCI) 60 cancer cell line platform. Several of these cell lines are known to be positive for dysregulation of the Wnt/b-catenin signaling pathway. […] Next we examined the effect of BCN057 in human colonic tumor derived organoids exposed to irradiation.

[5] = system: irradiated intestinal epithelium (jejunum); test: Jejunum histology and crypt proliferation after AIR; assay type: in vivo; remark: listed apart in the source
From the text: Since radiation doses>8 Gy induces cell cycle arrest and apoptosis of the crypt epithelial cells within day 1 post-radiation, resulting in a decrease in regenerating crypt colonies by day 3.5 and ultimately villi denudation by day 7 post-radiation exposure, animals were sacrificed when moribund or at 3.5 days after AIR for time course experiments and intestines were collected for histology. The intestine of each animal was dissected, washed in PBS to remove intestinal contents and the jejunum was fixed in 10% neutral-buffered formalin before paraffin embedding. Tissue was routinely processed and cut into 5 μm sections for haematoxylin and eosin and immunohistochemical staining. All haemotoxylin and eosin (HE) (Fisher Scientific, Pittsburgh, Pa.) staining was performed at the Pathology Core Facility in the KUMC Cancer Center.
To visualize villous cell proliferation mid-jejunum was collected for paraffin embedding and Ki67 immunohistochemistry. Tissue sections were routinely deparaffinized and rehydrated through graded alcohols and incubated overnight at room temperature with a monoclonal anti Ki67 antibody. Nuclear staining was visualized using streptavidin-peroxidase and diaminobenzidine (DAB) and samples were lightly counterstained with haematoxylin. […] The proliferation rate was calculated as the percentage of KI67-positive cells over the total number of cells in each crypt. A total of 60 crypts were examined per animal.
Crypt depth was independently and objectively analyzed and quantitated in a blind manner from coded digital photographs of crypts from HE-stained slides using ImageJ 1.37 software to measure the height in pixels from the bottom of the crypt to the crypt villus junction. Villi length was determined by measuring the length from the crypt villus junction to villous tip. This measurement in pixels was converted to length (in μm) by dividing with the following a conversion factor (1.46 pixels μm-1).

[6] = system: WNT target genes; test: qPCR of WNT target genes in irradiated human colonic organoids; assay type: cell-based; conditions: epithelial cells from irradiated human colonic organoids treated with BCN057
Method: (B-C, Data was the average of 3 human subjects).
To examine the effect of BCN057 on human intestinal, epithelial tissue surgical specimen collected from normal colon at least 10 cm apart from malignant site was used to develop ex vivo crypt organoid. At a dose level of 8 Gy all the budding crypts have been disappeared in the organoids. […] The effect of BCN057 on mRNA level of β-catenin target genes in organoids was also evaluated.

[7] = system: β-catenin target genes; test: Real-time PCR of β-catenin target genes in crypt cells; assay type: in vivo; conditions: crypt epithelial cells, irradiated mice treated with BCN057 vs irradiated control
Method: To compare the mRNA levels of β-catenin target genes in intestinal crypt cells from irradiated mice treated with BCN057 or PBS real-time PCR were performed using primer pairs for the genes Ephb2, Ascl, Olf, Tcf, Lef, Sox9 and Axin. RNA was isolated from crypt cells using RNeasy mini kit from Qiagen. Preparation of cDNA followed by real-time PCR array was performed according to manufacturer protocol (Qiagen).

[8] = jejunum, BCN057 at 24 hrs after AIR vs irradiated control

SMILES: COc1ccc2cc(-c3nc4ccc(C)cn4c3NCc3ccco3)c(=O)[nH]c2c1 [BCN057, 3-(3((furan-2-ylmethyl)ammo)-6-methylimidazo[1,2-a]pyridine-2-yl)-6-methoxyquinolin-2(1H)-one]
- organoid growth / ratio of budding crypt to total crypt ([1]; 8 Gy, BCN057 10 uM at 1 hr after irradiation): restored the number of budding crypts to un-irradiated levels; also recorded: improved the organoid growth
- Lgr5+ve ISCs in organoids ([1]; 8Gy, BCN057 treated vs irradiated control): recused Lgr5+ve ISCs; also recorded: increases the presence of Lgr5+ve cells
- serum FITC-dextran level ([2]; irradiated (AIR) mice treated with BCN057 vs irradiated untreated control, 4 h after gavage): significantly reduced; also recorded: lower serum dextran level
- serum dextran level ([2]; unirradiated BCN057 treated mice vs irradiated control): lower serum dextran level
- percent of BrdU+ve crypt epithelial cells ([3]; BCN057 treated vs untreated irradiated control, p<0.0005): significantly higher
- crypt villus morphology and BRDU incorporation ([3]; non-irradiated mice treated with BCN057): did not induce any changes
- rescue of malignant organoids from radiation toxicity ([4]; 8Gy (2-8 Gy in FIG. 17), BCN057 10 uM at 1 hr post radiation): did not recue organoids from radiation toxicity; also recorded: did not rescue; also recorded: could not reduce the radiation toxicity
- growth and proliferation of malignant organoid ([4]; un-irradiated organoids treated with BCN057): inhibitory effect
- number of crypt in jejunum ([5]; BCN057 at 24 hrs after AIR vs irradiated control): increase in number of crypts
- crypt villus structure / epithelium (HE staining) ([5]; jejunum, 3.5 day after AIR, BCN057 at 24 hrs post AIR): normal crypt villus structure; also recorded: restitution of epithelium
- % of Ki67 positive crypt cells [5, 8]: increase in crypt cell proliferation
- Crypt Depth villi length [5, 8]: preserved villous length; also recorded: increase
- mRNA level of WNT / β-catenin target genes [6]: several fold increase; also recorded: increases
- mRNA level of β-catenin target genes [7]: several fold increases
